{"source": "patent US10092599B2", "about": "“Methods for enhancing hematopoietic stem/progenitor cell engraftment” (CHILDREN'S MEDICAL CENTER CORPORATION, priority 2009, dated 2018)", "test_system": "hematopoietic stem/progenitor cell engraftment", "assay": "adult zebrafish whole kidney marrow competitive transplantation assay", "type": "in vivo", "settings": "for engraftment signal in pilot screen of 10 bioactive compounds: by four weeks post-transplant, 10 recipients per treatment; for average G/R / percentage of positive recipients: green marrow incubated in vitro 4 hrs, mixed with red marrow 1:4, 4 wpt, compared with DMSO control; for engraftment: by 4 weeks post transplant", "description": "A transparent adult zebrafish, casper, was used as a transplantation recipient. Casper is a double homozygous pigment mutant for the nacre allele (devoid of melanocytes) and the roy allele (devoid of iridophores and reduced melanoyctyes), which allows direct visualization of GFP labeled hematopoietic stem cell homing and engraftment without killing the recipients. Two marrows are used: Tg(β-actin:GFP) and Red GloFish® respectively to compete with each other at varying ratios e.g., 1:4, which can generate robust competition between the two donors. In one embodiment, the red marrow is the competitor, as well as an internal control for the transplant. At different timepoints post-transplant, the recipients are anesthetized and two pictures for each recipient are taken by a fluorescence stereomicroscope with GFP/DsRed filters individually. Images are analyzed by software, such as ImageJ, which can quantify the GFP/DsRed fluorescence intensity. The relative engraftment efficiency of the manipulated green marrow is measured by the ratio of the GFP intensity over the DsRed intensity within the same kidney region after background subtraction (labeled as G/R).\nA double-color labeled competitive transplantation assay was developed, as shown by the flow chart in FIG. 1A. GFP+ and DsRed2+ marrow cells are isolated from Tg(β-actin:GFP) and commercially available Red GloFish®. The two donor populations are mixed at a certain ratio and injected into sublethally irradiated casper recipients retro-orbitally. The DsRed2+ marrow is used as the competitor. Four weeks later, the engraftment is visualized by fluorescence dissection scope. Pictures of GFP and DsRed engraftment are taken for each recipient and analyzed by ImageJ. The kidney region is manually selected and the average fluorescence intensities of both green and red are measured within the same region. The average background intensity is measured in a region outside the fish, and subtracted from the kidney intensity. The calculation of the relative engraftment is shown by the equation in FIG. 1B.\nAdult zebrafish donors are anaesthetized with 0.2% tricaine before blood and kidney collection. Peripheral blood is obtained from adult casper by cardiac puncture with micropipette tips coated with heparin and collected into 0.9×PBS containing 5% FCS. About 3-5 million red blood cells are harvested from one donor. To dissect whole kidney marrow (WKM), a ventral midline incision is made on the donor fish. Whole kidney is dissected out and placed into ice-cold 0.9×PBS containing 5% FCS. Single-cell suspensions are generated by aspiration followed by filtering through a […] nylon mesh filter into a 50 ml conical tube. The flow-though part is diluted with a final volume of 25 ml and centrifuged at 1,500 rpm for 8 minutes. The supernatant is discarded and the pellet cells are resuspended in 1 ml 0.9×PBS containing 5% FCS. The number of viable cells are counted with a hemocytometer. […] Finally, the peripheral blood and kidney marrow cells are centrifuged at 1,500 rpm for 8 minutes, resuspended in 0.9×PBS containing 5% FCS and mixed at a certain ratio and concentration. Casper recipients are anesthetized in tricaine. 4 μl of the cell suspension mixture described above is injected into the circulation retro-orbitally through a Hamilton syringe (26s gauge, 10 μl volume). […] Transplanted recipients can be anesthetized in tricaine and visualized over time on a Zeiss Discovery V8 stereomicroscope with a 1.2× PlanApo lens and GFP/DsRed filters. Images are captured using AxioVision software and for each recipient, two images are taken with GFP or DsRed filter respectively. The images are all saved in .tif format and analyzed using ImageJ software.", "data": [{"smiles": "CCCCC(C)(C)[C@H](O)/C=C/[C@H]1[C@H](O)CC(=O)[C@@H]1C/C=C\\CCCC(=O)O", "note": "[dmPGE2, 16-,16-dimethyl Prostaglandin E2]", "values": [{"measurement": "score in the competitive transplant model", "setting": "at 3 months", "value": "positive"}, {"measurement": "score in the competitive transplant model", "setting": "at 4 weeks", "value": "positive"}, {"measurement": "engraftment signal in pilot screen of 10 bioactive compounds", "value": "enhanced signal above the rest of the chemicals tested"}, {"measurement": "average G/R", "value": "significantly increased"}, {"measurement": "percentage of positive recipients", "value": "significantly increased"}, {"measurement": "engraftment", "setting": "green marrow incubated in vitro with 10 μM at room temperature for 2-4 hours", "value": "increase engraftment"}]}, {"smiles": "O=C1Nc2cc(Br)ccc2C1=C1Nc2ccccc2C1=NO", "note": "[BIO, 6-bromorindirubin-3′-oxime]", "values": [{"measurement": "score in the competitive transplant model", "setting": "at 3 months", "value": "positive"}, {"measurement": "score in the competitive transplant model", "setting": "at 4 weeks", "value": "positive"}, {"measurement": "engraftment signal in pilot screen of 10 bioactive compounds", "value": "enhanced signal above the rest of the chemicals tested"}, {"measurement": "average G/R", "value": "significantly increased"}, {"measurement": "percentage of positive recipients", "value": "significantly increased"}, {"measurement": "engraftment", "setting": "green marrow incubated in vitro with 0.5 μM at room temperature for 2-4 hours", "value": "increase engraftment"}]}]}
